Entries after “also recorded” stand apart in the source; their conditions may differ.
Legend:
[1] = biological target: acetylcholinesterase (AChE) (UniProt O42275); format: biochemical, electric eel; fetal bovine serum; conditions: read-out: AChE inhibition constant Ki ± std. error; 30° C., pH 8.0
Method: Acetylcholinesterase Assay and Inhibition Kinetics: Tricyclic pyrones of this invention were tested for inhibition of AChE. […] Reactions were carried out at 30° C. in 0.1 M sodium phosphate buffer at pH 8.0 in the presence of […] and 3.3×10^−4 M 3-carboxy-4-nitrophenyl disulfide. Aliquots of incubating mixtures containing enzyme alone, or enzyme in the presence of each carbamate, were withdrawn at selected time intervals and assayed for enzyme activity in order to obtain kinetic data. From the kinetic data, inhibition and bimolecular rate constants were calculated by the equation: [formula]
in which kapp is the pseudo-first-order rate constant.

[2] = test system: T1, liver and intestinal microsomal ACAT; experiment: Inhibition of liver and intestinal microsomal ACAT activity; format: biochemical; conditions: using literature IC50 of pyripyropene as standard
T1 construct: other: 100 μM; other: 44 nM; other: 50 μM
Method: . Microsomes were prepared from liver and intestinal mucosal scrapings by sequential centrifugation and in vitro ACAT activity assays were done according to the method of Billheimer (Billheimer, J. T. (1985), “Cholesterol acyltransferase,” In Methods in Enzymology 111:286-293). Briefly, 100 μg microsomal protein, 22 μg BSA, and 52 nmol cholesterol and the synthesized drug in 5 μL DMSO were preincubated for 30 minutes at 37° C. in a phosphate buffer (200 μL total volume). After 30 minutes, 1 nmol [^14C]oleoyl-CoA was added as substrate and incubated for an additional 20 minutes. The reaction was stopped with the addition of 1 mL ethanol and lipids were extracted with hexane. Cholesteryl [^14C]oleate formation was quantified by thin-layer chromatography and data are expressed as percent inhibition of ACAT activity (pmol/μg protein per minute) compared to a control sample incubated with no drug. All samples were run in duplicate. […]

[3] = test system: L1210 lymphoblastic leukemia cells; experiment: Inhibition of DNA synthesis (3H-thymidine incorporation) in L1210 cells in vitro; format: cell-based, Murine; conditions: for IC50: read-out: concentration that inhibits DNA synthesis by 50% (IC50)
Method: FIG. 1 illustrates a comparison of the effects of four new tricyclic pyrone derivatives and CPT on DNA synthesis in L1210 cells in vitro. About 2.53×10^6 cells suspended in 0.5 ml of RPMI 1640 medium were incubated at 37° C. for 90 minutes in the presence or absence (control) of the indicated concentrations of drugs. The cells were then pulse-labeled for an additional 30 minutes to determine the rate of ^3H-thymidine incorporation into DNA. DNA synthesis in vehicle-treated control cells was 43,956±4,569 cpm (100±11%). The blank value (1,241±99 cpm) for cells pulse-labeled for 0 minutes with 1 μCi of ^3H-thymidine has been subtracted from the results. Bars: means±SD (n=3).
(§1) All solutions of tricyclic pyrone analogs were dissolved and diluted in 100% ethanol (ETOH), whereas CPT (Sigma Chemical Co., St. Louis, Mo.) solutions were prepared in 100% dimethyl sulfoxide (DMSO). Murine L1210 lymphoblastic leukemia cells, obtained from the American Type Culture Collection (Rockville, Md.), were maintained in continuous exponential growth by twice-a-week passage in RPMI 1640 medium supplemented with 7.5% fortified bovine calf serum (HyClone Laboratories, Inc., Logan, Utah). The cultures were incubated at 37° C. in a humidified atmosphere containing 5% CO2. All drugs were supplemented to the culture medium in 1- or 2 μl aliquots. The concentration of vehicle in the final incubation volume never exceeded 0.2-0.4%. […] Control cells incubated in the absence of drugs were similarly treated with vehicle only and, in every experiment, all incubates received the same volume of solvent.
For DNA synthesis, L1210 cells were resuspended in fresh serum-free RPMI 1640 medium at a density of about 2.5×10^6 cells/0.5 ml. The cells were incubated at 37° C. for 90 min in the presence or absence of drugs and then pulse-labeled for an additional 30 min with 1 μCi of [methyl-^3H]thymidine (51 Ci/mmol; Amersham Corp., Arlington Heights, Ill.). The incubations were terminated by the addition of 0.5 ml of 10% trichloroacetic acid (TCA). After holding on ice for 15 min, the acid-insoluble material was recovered over Whatman GF/A glass microfibre filters and washed thrice with 2 ml of 5% TCA and twice with 2 ml of 100% EtOH. After drying the filters, the radioactivity bound to the acid-precipitable material was determined by liquid scintillation counting in 10 ml of Bio-Safe NA (Research Products International Corp., Mount Prospect, Ill.).

[4] = test system: L1210 lymphoblastic leukemia cells; experiment: Inhibition of L1210 tumor cell growth in vitro (Coulter counter); format: cell-based, Murine; conditions: for inhibition at 50 µM: 3 and 4 days in culture, read-out: inhibition of L1210 cell growth (% reduction of control cell numbers); for reduction of L1210 cell numbers vs control: 6.25 μM
Method: Cells were plated at an initial density of 1×10^4 cells/0.5 ml/well in RPMI 1640 medium, containing 7.5% fortified bovine calf serum, and grown at 37° C. for 4 days in a humidified incubator in 5% CO2 in air. Cells were incubated in the presence or absence (^•, control) of 50 μM 3A (▪), 2D & 2E (□),3D & 3E (▴), 2B & 2C (Δ) 2A (♦), 3B & 3C (⋄), or 10 μM CPT (∘) and their density was monitored in triplicate every 24 h using a Coulter counter. Cells numbers are plotted on a logarithmic scale.
as §1
For tumor cell growth, L1210 cells were resuspended in fresh serum-containing RPMI 1640 medium, plated at an initial density of 1×10^4 cells/0.5 ml, and incubated in 48-well Costar cell culture plates (Costar, Cambridge, Mass.). Cells were grown for 4 days in the presence or absence of drugs and their density was monitored every 24 h using a Coulter counter (Coulter Electronics, Ltd., Luton Beds, England). Data of all in vitro experiments were analyzed using Student's t-test with the level of significance set at P<0.05.

[5] = test system: L1210 leukemic cells; experiment: Inhibition of other macromolecule synthesis (RNA and protein synthesis); format: cell-based
[6] = biological target: T2, tubulin protein from bovine brain (Bos taurus, UniProt P81947+Q6B856); experiment: Polymerization of pure tubulin in a cell-free system; format: biochemical; conditions: 25 μM, 35° C., 20 min, 2.5 mg/ml tubulin
T2 construct: tubulin protein from bovine brain (2.5 mg/ml); purchased Cytoskeleton (Denver, Colo.); host or cells: bovine brain
T2 sequence (P81947 whole entry): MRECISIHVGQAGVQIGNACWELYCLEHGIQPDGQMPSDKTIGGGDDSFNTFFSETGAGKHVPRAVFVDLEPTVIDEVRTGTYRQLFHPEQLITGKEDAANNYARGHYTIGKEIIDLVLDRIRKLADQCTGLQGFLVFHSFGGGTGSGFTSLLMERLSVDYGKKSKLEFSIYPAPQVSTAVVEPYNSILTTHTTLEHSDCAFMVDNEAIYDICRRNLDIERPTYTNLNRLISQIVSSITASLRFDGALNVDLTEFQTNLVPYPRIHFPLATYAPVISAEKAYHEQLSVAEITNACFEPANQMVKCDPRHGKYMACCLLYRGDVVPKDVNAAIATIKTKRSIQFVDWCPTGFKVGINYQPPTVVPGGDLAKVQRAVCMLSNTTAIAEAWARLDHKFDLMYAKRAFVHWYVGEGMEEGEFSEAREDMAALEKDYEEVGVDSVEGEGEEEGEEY
T2 sequence (Q6B856 whole entry): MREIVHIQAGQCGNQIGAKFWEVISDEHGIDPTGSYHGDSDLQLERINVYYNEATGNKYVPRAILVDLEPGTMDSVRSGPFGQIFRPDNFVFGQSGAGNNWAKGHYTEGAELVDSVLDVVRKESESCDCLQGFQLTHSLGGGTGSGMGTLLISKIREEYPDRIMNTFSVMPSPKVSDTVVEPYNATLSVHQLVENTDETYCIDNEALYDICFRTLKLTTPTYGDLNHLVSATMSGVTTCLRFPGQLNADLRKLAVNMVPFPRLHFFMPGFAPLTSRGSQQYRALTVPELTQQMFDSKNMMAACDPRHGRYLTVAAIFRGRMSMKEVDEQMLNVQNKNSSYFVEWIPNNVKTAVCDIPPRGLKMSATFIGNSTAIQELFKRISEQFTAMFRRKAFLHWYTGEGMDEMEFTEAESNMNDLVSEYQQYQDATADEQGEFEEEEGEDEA
Method: In a final volume of 200 μl, a solution of 2.5 mg/ml tubulin protein from bovine brain, 80 mM PIPES buffer, pH 6.8, 1 mM MgCl2, 1 mM EGTA, 1 mM GTP, and 10% glycerol was incubated at 35° C. for 20 minutes in the presence or absence (control) of 25 μM of compound 2A. The absorbance of the solution at OD340 nm was measured to determine the rate of tubulin polymerization.
Tubulin is a labile protein, which is unstable below 80 mM PIPES, should not be exposed to pH values less than 6.8 or greater than 7.0, and will not polymerize in the presence of Ca^2+. GTP and Mg^2+ are necessary for tubulin nativity and glycerol stabilizes tubulin and lowers the initial concentration required to initiate polymerization.
The ability of 2A to alter the polymerization of pure tubulin in a cell-free system in vitro was analyzed using the assay kit purchased from Cytoskeleton (Denver, Colo.). The polymerization reaction contained, in a final volume of 200 μl, tubulin protein from bovine brain (2.5 mg/ml), 80 mM PIPES buffer, pH 6.8, 1 mM MgCl2, 1 mM EGTA, 1 mM GTP and 10% glycerol. […] Samples were incubated at 35° C. in quartz microcells and the rate of tubulin polymerization was followed over 20 min by measuring the increased absorbance of the solution at OD340nm, using a Shimadzu UV-160 spectrophotometer equipped with dual-beam optics and a thermostatically-controlled cell holder. […]

[7] = test system: EMT6 mammary carcinoma cells; experiment: Growth of EMT6 mammary carcinoma cells; format: cell-based
[8] = test system: MCF-7 human breast cancer cells; experiment: Growth of MCF-7 human breast cancer cells; format: cell-based
[9] = Mus musculus, L1210, 50 μM, 90 min + 30 min pulse

Chain of acetylcholinesterase (AChE) (O42275 whole entry): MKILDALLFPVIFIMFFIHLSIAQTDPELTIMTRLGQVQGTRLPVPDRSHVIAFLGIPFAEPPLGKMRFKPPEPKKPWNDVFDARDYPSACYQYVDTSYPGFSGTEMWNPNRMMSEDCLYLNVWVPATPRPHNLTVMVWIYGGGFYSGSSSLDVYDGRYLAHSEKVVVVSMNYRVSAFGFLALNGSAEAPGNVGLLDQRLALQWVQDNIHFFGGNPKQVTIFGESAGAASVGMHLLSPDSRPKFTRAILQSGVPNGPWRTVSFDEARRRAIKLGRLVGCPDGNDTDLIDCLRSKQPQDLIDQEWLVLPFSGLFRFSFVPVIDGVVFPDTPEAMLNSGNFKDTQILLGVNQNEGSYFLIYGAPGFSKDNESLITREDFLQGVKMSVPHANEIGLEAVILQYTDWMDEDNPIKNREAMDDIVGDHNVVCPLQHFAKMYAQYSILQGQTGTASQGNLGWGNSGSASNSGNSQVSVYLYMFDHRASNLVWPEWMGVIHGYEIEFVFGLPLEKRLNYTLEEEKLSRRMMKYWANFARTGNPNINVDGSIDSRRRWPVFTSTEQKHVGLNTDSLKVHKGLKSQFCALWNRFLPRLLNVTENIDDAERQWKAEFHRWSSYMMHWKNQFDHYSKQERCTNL

COc1ccc(-c2cc3c(c(=O)o2)C=C2CCCCC2O3)cc1OC (stereo not shown) [Compound 3A, 3-(3,4-dimethoxyphenyl)-1H-5a,6,7,8,9-pentahydro-1-oxopyrano[4,3-b][1]benzopyran]
Ki [1]: 23 ± 3.5 µM | IC50 [2]: 63 µM | IC50 ([3]; Mus musculus, L1210, 2 h): ~8.5 µM | inhibition at 25 µM ([3]; Mus musculus, L1210, 25 μM, 90 min + 30 min pulse): 62% | inhibition at 50 µM [3, 9]: 79 to 91% | inhibition at 50 µM ([4]; Mus musculus, L1210): 91 to 100% | inhibition of macromolecule synthesis (RNA and protein synthesis) [5]: more potent inhibitor of macromolecule synthesis than the 3-pyridyl substituted tricyclic pyrone 2A

O=c1cc(O)cc(-c2cccnc2)o1 [Compound 5B, 4-hydroxy-6-(3-pyridyl)-2-pyrone]
inhibition of DNA synthesis in L1210 cells ([3]; 25 μM, 90 min + 30 min pulse): no significant effects | inhibition of DNA synthesis in L1210 cells ([3]; 50 μM, 90 min + 30 min pulse, 50 µM): no effect; also recorded: ineffective; also recorded: fail to inhibit DNA synthesis | melting point: 187 to 189 °C

O=c1oc(-c2cccnc2)cc2c1C=C1CCCCC1O2 (stereo not shown) [Compound 2A, 3-(3-pyridyl)-1H-5a,6,7,8,9-pentahydro-1-oxopyrano[4,3-b][1]benzopyran]
IC50 [2]: 50 µM | inhibition at 50 µM [3, 9]: 79 to 91% | IC50 ([3]; Mus musculus, L1210 cells, 2 h): ~8.5 µM | inhibition of tumor cell growth ([4]; 1.56 μM, after 24 h): no effect | times less potent than CPT at inhibiting leukemic cell growth ([4]; 6.25 μM 2A mimics 0.78 μM CPT over 4 days): about 8 times | reduction of L1210 cell numbers vs control ([4]; 1 day): 28% | reduction of L1210 cell numbers vs control ([4]; 2 days): 74% | reduction of L1210 cell numbers vs control ([4]; 3 days): 90% | reduction of L1210 cell numbers vs control ([4]; 4 days): 94% | IC50 ([4]; Mus musculus, L1210, 24 h, 1 day): 11 µM | IC50 ([4]; Mus musculus, L1210, 48 h, 2 days): 2 µM | IC50 ([4]; Mus musculus, L1210, 72 h, 3 days): 1.1 µM | IC50 ([4]; Mus musculus, L1210, 96 h, 4 days): 1.1 µM | inhibition at 1.56 µM ([4]; Mus musculus, L1210, 1.56 μM, after 96 h): 83% | inhibition at 50 µM ([4]; Mus musculus, L1210): 91 to 100% | inhibition of tubulin polymerization (OD340nm) [6]: completely inhibit polymerization of pure tubulin; also recorded: completely inhibits tubulin polymerization; also recorded: no significant MT polymerization can be detected | inhibition of growth of EMT6 mammary carcinoma cells [7]: greater inhibitory effect than tricyclic pyrone 3A | inhibition of growth of MCF-7 human breast cancer cells [8]: greater inhibitory effect than tricyclic pyrone 3A
